Counter-ions that a name gives are not always drawn. Like-named read-outs stand apart in the source and are kept apart here.
Tests used:
KHT murine fibrosarcoma = assay: Tumor growth ratio (time to grow to 4x initial volume, treated/untreated), KHT fibrosarcoma in C3H mice; type: in vivo, mouse (C3H)
Experimental: (§1) The transplantable experimental murine fibrosarcomas RIF-1 or KHT were grown intradermally (2×10^5 cells injected i.d.) in the flank of 5 month old male C3H mice. When tumors reached a volume of ~100 mm^3 they were used for the studies. The cytotoxic drugs under study (all were formulated for human clinical use) were made up just prior to use in their appropriate aqueous vehicle except those experimental groups in which epinephrine-HCl (1 mg/ml) was added to the aqueous drug (usually ~10% of total volume). Drug concentrations were: adriamycin, 3.75 mg/ml: BCNU, 10 mg/ml: vinblastine, 1.2 mg/ml; and 5-fluorouracil, 30 mg/ml. The drugs were administered intraperitoneally (i.p.) or intratumorally (i.t.) in an injection volume of 0.1 ml. The tumors of the treated mice as well as untreated control tumors were measured three times per week by vernier calipers and their volumes were calculated by the formula: […]
(§2) where D1 -D3 are tumor diameters in mm. The time (days) for the tumors to grow to four times their original experimental volume was used as a parameter of treatment effectiveness.

[1] = test system: RIF-1 murine fibrosarcoma
Experimental: The transplantable experimental murine fibrosarcomas RIF-1 or KHT were grown intradermally (2×10^5 cells injected i.d.) in the flank of 5 month old male C3H mice. When tumors reached a volume of ~100 mm^3 they were used for the studies. […] Drug concentrations were: adriamycin, 3.75 mg/ml: BCNU, 10 mg/ml: vinblastine, 1.2 mg/ml; and 5-fluorouracil, 30 mg/ml. The drugs were administered intraperitoneally (i.p.) or intratumorally (i.t.) in an injection volume of 0.1 ml. The tumors of the treated mice as well as untreated control tumors were measured three times per week by vernier calipers and their volumes were calculated by the formula:
*This ratio indicated the time it would take a treated tumor to grow to
4× its initial size, divided by the time it would take an untreated
tumor to grow to 4× its initial size.

[2] = test system: murine fibrosarcomas RIF-1 or KHT; conditions: epinephrine 1 mg/kg alone
Experimental: as §1, §2

[3] = 2 mg/kg BW i.t., Epi 1 mg/kg where combined

`O=NN(CCCl)C(=O)NCCCl` [BCNU (carmustine), carmustine] was tested, and the “Tumor Growth Ratio” value (KHT murine fibrosarcoma; 40 mg/kg BW i.t., Epi 1 mg/kg where combined) was 2.08.
In the case of `CC[C@]1(O)C[C@@H]2CN(CCc3c([nH]c4ccccc34)[C@@](C(=O)OC)(c3cc4c(cc3OC)N(C)[C@H]3[C@@](O)(C(=O)OC)[C@H](OC(C)=O)[C@]5(CC)C=CCN6CC[C@]43[C@@H]65)C2)C1` [Vinblastine, vinblastine sulfate], the “Tumor Growth Ratio” value (KHT murine fibrosarcoma; 2 mg/kg BW i.p.) is reported as 1.16, the “Tumor Growth Ratio” value (KHT murine fibrosarcoma; [3]) is reported as 1.76 and the “Tumor Growth Ratio” value ([1]; 2 mg/kg BW i.p.) is reported as 1.12. For the same compound, the “Tumor Growth Ratio” value [1, 3] was 3.01.
In the case of `O=c1[nH]cc(F)c(=O)[nH]1` [5-Fluorouracil, 5-fluorouracil], the “Tumor Growth Ratio” value ([1]; 100 mg/kg BW i.p.) is reported as 1.20 and the “Tumor Growth Ratio” value ([1]; 100 mg/kg BW i.t., Epi 1 mg/kg where combined) is reported as 1.30.
With `COc1cccc2c1C(=O)c1c(O)c3c(c(O)c1C2=O)C[C@@](O)(C(=O)CO)C[C@@H]3O[C@H]1C[C@H](N)[C@H](O)[C@H](C)O1` [Adriamycin, doxorubicin hydrochloride] the “Tumor Growth Ratio” value ([1]; 15 mg/kg BW i.p.) was 1.63 and the “Tumor Growth Ratio” value ([1]; 15 mg/kg BW i.t., Epi 1 mg/kg where combined) was 3.04.
With `CNC[C@H](O)c1ccc(O)c(O)c1` [Epinephrine, epinephrine] the “chemotherapeutic effect when used alone” value [2] was “not chemotherapeutic when used alone”.

Reference: patent US4978332A, “Treatments employing vasoconstrictive substances in combination with cytotoxic agents for introduction into cellular lesion areas” (priority 1987, dated 1990)
